Laboratory results from ChEMBL document CHEMBL1201862, “PubChem BioAssay data set” (2004).
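Where inhibition never reached the appropriate level, the endpoint shown equals the highest concentration tested. Otherwise, values were interpolated linearly from a five-concentration, 48-hour dose response in 96-well plates. GI50 is the concentration that inhibits growth by half.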 The source made the active and inactive calls. No stated cut-off is given here; in the data, active = GI50 up to about 1.1 µM and inactive = higher.

Legend:
Test in all cases: growth of human tumour cells (NCI), 48 h
OVCAR-4 = system: OVCAR-4
SR = system: SR
SNB-78 = system: SNB-78
M19-MEL = system: M19-MEL
UO-31 = system: UO-31
DMS-273 = system: DMS-273
786-0 = system: 786-0
HOP-62 = system: HOP-62
NCI-H23 = system: NCI-H23
SK-OV-3 = system: SK-OV-3
CAKI-1 = system: CAKI-1
SF-539 = system: SF-539
XF498 = system: XF498
DMS-114 = system: DMS-114
NCI-H522 = system: NCI-H522
MOLT-4 = system: MOLT-4
SK-MEL-28 = system: SK-MEL-28
HL-60 = system: HL-60
HCT-116 = system: HCT-116
SF-268 = system: SF-268
K562 = system: K562
NCI-H226 = system: NCI-H226
ACHN = system: ACHN
HOP-92 = system: HOP-92
DLD-1 = system: DLD-1
RPMI-8226 = system: RPMI-8226
IGROV-1 = system: IGROV-1
A498 = system: A498
HCC 2998 = system: HCC 2998
LXFL 529 = system: LXFL 529
Malme-3M = system: Malme-3M
SN12C = system: SN12C
M14 = system: M14
SK-MEL-2 = system: SK-MEL-2
SNB-75 = system: SNB-75
CCRF-CEM = system: CCRF-CEM
COLO 205 = system: COLO 205
UACC-62 = system: UACC-62
OVCAR-5 = system: OVCAR-5
RXF 393 = system: RXF 393
HOP-18 = system: HOP-18
TK-10 = system: TK-10
NCI-H460 = system: NCI-H460
KM12 = system: KM12
KM-20L2 = system: KM-20L2
A549 = system: A549
EKVX = system: EKVX
LOX IMVI = system: LOX IMVI
SF-295 = system: SF-295
U-251 = system: U-251
OVCAR-8 = system: OVCAR-8
HT-29 = system: HT-29
UACC-257 = system: UACC-257
OVCAR-3 = system: OVCAR-3
SW-620 = system: SW-620
SNB-19 = system: SNB-19

Measured: GI50

COc1ccc(/C=N/Nc2nc(C)c3c(n2)Nc2ccccc2NC3=O)cc1
inactive: OVCAR-4 > 100 µM | SR > 100 µM | SNB-78 > 100 µM | M19-MEL > 100 µM | UO-31 > 100 µM | DMS-273 > 100 µM | 786-0 > 100 µM | HOP-62 > 100 µM | NCI-H23 > 100 µM | SK-OV-3 > 100 µM | CAKI-1 > 100 µM | SF-539 > 100 µM | XF498 > 100 µM | DMS-114 > 100 µM | NCI-H522 > 100 µM | MOLT-4 > 100 µM | SK-MEL-28 > 100 µM | HL-60 > 100 µM | HCT-116 > 100 µM | SF-268 > 100 µM | K562 > 100 µM | NCI-H226 > 100 µM | ACHN > 100 µM | HOP-92 > 100 µM | DLD-1 > 100 µM | RPMI-8226 > 100 µM | IGROV-1 > 100 µM | A498 > 100 µM | HCC 2998 > 100 µM | LXFL 529 76.7 µM | Malme-3M > 100 µM | SN12C > 100 µM | M14 > 100 µM | SK-MEL-2 > 100 µM | SNB-75 42.6 µM | CCRF-CEM > 100 µM | COLO 205 > 100 µM | UACC-62 > 100 µM

Cc1ccc2c(c1)C1C(CO2)C(c2ccccc2)=NN1c1ccccc1 (stereo unspecified)
inactive: SNB-78 > 100 µM | M19-MEL > 100 µM | OVCAR-5 > 100 µM | RXF 393 > 100 µM | UO-31 > 100 µM | DMS-273 > 100 µM | HOP-18 > 100 µM | 786-0 > 100 µM | TK-10 > 100 µM | HOP-62 > 100 µM | NCI-H460 > 100 µM | NCI-H23 > 100 µM | KM12 > 100 µM | SK-OV-3 > 100 µM | KM-20L2 > 100 µM | SF-539 > 100 µM | A549 > 100 µM | DMS-114 > 100 µM | NCI-H522 > 100 µM | MOLT-4 96.2 µM | SK-MEL-28 > 100 µM | HL-60 72.3 µM | HCT-116 > 100 µM | EKVX > 100 µM | SF-268 > 100 µM | K562 > 100 µM | ACHN > 100 µM | LOX IMVI > 100 µM | SF-295 > 100 µM | HOP-92 80.5 µM | DLD-1 > 100 µM | RPMI-8226 45.7 µM | IGROV-1 > 100 µM | A498 > 100 µM | U-251 > 100 µM | HCC 2998 95.5 µM | LXFL 529 > 100 µM | Malme-3M > 100 µM | OVCAR-8 > 100 µM | SK-MEL-2 > 100 µM | SNB-75 > 100 µM | HT-29 69.5 µM | UACC-257 > 100 µM | CCRF-CEM > 100 µM | OVCAR-3 > 100 µM | COLO 205 > 100 µM | SW-620 > 100 µM | SNB-19 > 100 µM
